Assay results reported in PMC7534598 (iScience, 2020).

Columns and labels:
furin [1] = target: T1, furin (Homo sapiens, UniProt P09958); experiment: enzyme inhibition at a single concentration of […]; format: biochemical; conditions: read-out: % inhibition at 100 μM
furin [2] = target: T1, furin; format: biochemical

T1 sequence (P09958 108-794): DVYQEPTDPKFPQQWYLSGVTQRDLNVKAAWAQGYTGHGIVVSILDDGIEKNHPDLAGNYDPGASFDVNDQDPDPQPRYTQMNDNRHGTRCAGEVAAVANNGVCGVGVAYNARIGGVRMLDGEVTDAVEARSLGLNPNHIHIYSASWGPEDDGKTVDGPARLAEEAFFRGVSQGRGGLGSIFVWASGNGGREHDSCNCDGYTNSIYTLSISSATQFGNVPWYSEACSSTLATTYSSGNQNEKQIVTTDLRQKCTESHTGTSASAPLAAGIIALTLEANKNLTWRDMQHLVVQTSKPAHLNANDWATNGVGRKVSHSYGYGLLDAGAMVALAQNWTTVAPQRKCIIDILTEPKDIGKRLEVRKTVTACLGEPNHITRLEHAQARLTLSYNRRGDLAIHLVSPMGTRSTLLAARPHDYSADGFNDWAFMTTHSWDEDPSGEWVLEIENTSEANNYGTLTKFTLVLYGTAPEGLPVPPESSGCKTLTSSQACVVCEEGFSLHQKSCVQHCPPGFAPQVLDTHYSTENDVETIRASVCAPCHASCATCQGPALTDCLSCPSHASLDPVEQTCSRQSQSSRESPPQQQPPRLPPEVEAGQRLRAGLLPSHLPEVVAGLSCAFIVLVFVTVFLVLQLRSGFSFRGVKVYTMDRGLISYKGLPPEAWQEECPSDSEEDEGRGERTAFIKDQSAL

SMILES	inhibition at 100 µM (furin [1]) [%]	IC50 (furin [2]) [µM]
CN(Cc1cnc2nc(N)nc(N)c2n1)c1ccc(C(=O)N[C@@H](CCC(=O)O)C(=O)O)cc1 [methotrexate]	> 70	
N=C(N)c1ccc(/N=N/Nc2ccc(C(=N)N)cc2)cc1 [diminazene]		5.42 ± 0.11
COc1cc(C2Oc3cc([C@H]4Oc5cc(O)cc(O)c5C(=O)[C@@H]4O)ccc3OC2CO)ccc1O (stereo partly shown) [silybin]	> 70	
Nc1nc(N)c2nc(CNc3ccc(C(=O)N[C@@H](CCC(=O)O)C(=O)O)cc3)cnc2n1 [aminopterin]	> 70	
